# From patent EP3783012A1, “AN ANTIMICROBIAL PEPTIDE” (priority 2019, dated 2021)
# Where no end group is shown, it is not given here.
# What was measured:
# [1] = tested on: human THP-1 macrophages; experiment: Ex-vivo viability assay (MTT); format: cell-based
# Description: Ex-vivo viability assay: Cellular viability was assessed in human THP-1 macrophages by a colorimetric assay that makes use of thiazolyl blue tetrazolium bromide (MTT, Sigma). Cells were grown in Roswell Park Memorial Institute (RPMI) medium supplemented with 10% of heat inactivated fetal bovine serum (FBS), 1% L-glutamine and 1% penicillin-streptomycin. At 90% confluence, cells were centrifuged and diluted to a 1:5 ratio with complete RPMI. The monocytes were differentiated into macrophages using […] phorbol 12-myristate 13-acetate (PMA) before being seeded in a 96 well plate at a density of 1.0 x 10^4 cells/well and incubated in the presence of 5% CO2 for 72 hours at 37°C. Following this, cells were treated with increasing concentrations (0.05, 0.5, 5, 50, 500 µg/mL) of Pep_V2QV5D, magainin 2 or colistin before re-incubation for a further 24 hours. Post-incubation, 10 µL of MTT was added to each well at a final concentration of 500 µg/mL and incubated at 5% CO2 for 2 hours at 37°C. Formazan crystals were dissolved by the addition of 100 µL 100% DMSO and gentle shaking for 5 minutes at room temperature. The absorbance was measured at 570nm in a microplate spectrophotometer (Synergy H1, Biotek). Maximum toxicity was determined by cells incubated with 100% DMSO. Cell viability was calculated as a per cent of a control treated with PBNS. Three technical replicates were performed each day on three independent days.
# [2] = tested on: colRAB; experiment: Complete Elimination (CE) Drop Plate method; format: cell-based, A. baumannii; settings: 90 minutes challenge in PBNS, tested alone
# Description: (§1) Complete Elimination (CE) Drop Plate method: The CE method was primarily used as the antimicrobial susceptibility testing method for peptides used in this study. This was performed to avoid any interference of cations within the test media or buffer on the bioactivity of the peptides. This assay was performed by the method outlined by Chen et al. (2003) with minor modifications. Briefly, bacteria were grown overnight and sub-cultured to mid exponential phase. PBNS was used to make serial dilutions of bacteria in a 96 well plate. The appropriate volume of peptide was added to the wells at a final volume of 100 µL. As a control, PBNS was added to the bacterial suspensions without any peptide. The microtiter plate was incubated for 90 minutes at 37°C. Post challenge, 10 µL from each well was spotted onto appropriate media, depending on the strain. This was conducted in triplicate. The spots were left to dry, and the plates were incubated inverted. The first concentration to inhibit growth across all bacterial dilutions was determined as the CE concentration. Surviving colonies at sub-CE concentrations were counted after 18 hours incubation at 37°C. The reduction in colony forming units (CFU) was assessed relative to the untreated control and the log reduction induced by peptide treatment was calculated. All antimicrobial activity assays were performed in triplicate and on independent days.
# [3] = tested on: colSAB; experiment: Complete Elimination (CE) Drop Plate method; format: cell-based, A. baumannii; settings: 90 minutes challenge in PBNS
# Description: as §1
# [4] = tested on: colRAB; experiment: Synergy study, Fractional inhibitory concentration (FIC) by CE drop plate method; format: cell-based, A. baumannii; settings: Pep_V2QV5D combined with colistin
# Description: Synergy studies were conducted using the above described CE drop plate method, however two peptides were mixed in a series of concentration combinations using PBNS as a diluent before bacterial inoculation and subsequent incubation. The highest concentration combination tested was the individual CE concentrations of Pep_V2QV5D and colistin, which were 12 µg/mL and 8 µg/mL, respectively. The amounts of each compound were then reduced sequentially in various proportions until the lowest possible active combination was identified.
# Traditionally, the FIC in a drug mixture is defined as the sum of the FICs (ΣFIC) and is calculated with the equation; ΣFIC = FICA + FICB = (CEcombA/CEA) + (CEcombB/CEB) [formula]
# Where CEA and CEB are the killing concentrations of individual peptides A and B, respectively, and CEcombA and CEcombB are the killing concentrations of the peptides in combination. In this work we used a similar concept and analysed the ratios of FICA and FICB. 'Synergy' was interpreted as a FIC ≤ 0.5, 'antagonism' as FIC > 4.0 and 'no interaction' as FIC > 0.5-4.0 [40].
# [5] = tested on: A. baumannii; experiment: In vitro resistance study (14 sequential passages at sub-inhibitory concentrations); format: cell-based; settings: repeated exposure to sub-inhibitory concentrations
# Description: In vitro resistance study: This assay was conducted as outlined by Ge et al. 1999 with some modifications. Briefly, the in vitro passage study involved exposing bacteria diluted to […] in PBNS to Pep_V2QV5D at one-half of the previously established bactericidal concentration. After 90 minutes of incubation at 37°C, 10 µL was spotted in triplicate on MHB and incubated again overnight. Post-incubation, surviving colonies were collected, diluted in PBNS and adjusted to […] before repeated treatment with the sub-killing concentration of Pep_V2QV5D. The CE concentration was determined prior to the initiation of the study, after the 4th, 7th, 11th and 14th passages. If the CE concentration after the fourth passage was greater than the original killing concentration, then for passes 5, 6, and 7, the amount of peptide used during the bacterial challenge was increased to one-half of that new CE concentration. This was continued over a 14-day course. Magainin and colistin were used as controls for the in vitro resistance study. This assay was performed in independent duplicates.
# [6] = in humans; cited from earlier work
substance,measurement,setting,value
VRGLAPKKSLWPFGGPFKSPFN [Pep_V2QV5D],toxic concentration compared to the concentration required for antimicrobial action (therapeutic index),[1],over 40 times
GIGKFLHSAKKFGKAFVGEIMNS [magainin 2],decrease in viability,"[1]; 50 µg/mL, 24 hours, MTT",22%
colistin,Complete Elimination values (CE concentration),[2],8 µg/mL
same,Complete Elimination values (CE concentration),[2]; listed as Colistin,8 ^(R) µg/mL
same,Complete Elimination values (CE concentration),[3],0.25 µg/mL
same,CE concentration in combination,[4],1 µg/mL
same,fold change in the CE concentration over 14 days,[5],16 fold
same,toxic concentration compared to the concentration required for antimicrobial action (therapeutic index),[1],6.8 times
vasopressin,half-life,[6],10 to 35 min
